Results: US12233070B2, “Methods for treating benzodiazepine misuse/use disorder” (University of M[…] Center, priority 2020, dated 2025)
Read-outs that look alike come from different tables or passages of the source.

Assays:
rhesus monkeys [1] = test: Observation/sedation, focal animal behavioral scoring; format: in vivo, rhesus monkey; details: i.v.
Method: For the data shown here, the behavior of each monkey (n=4 total) was scored using a focal animal approach as described previously (Duke et al. 2018, J Pharmacol Exp Ther 366: 145-57). Briefly, a trained observer blind to the drug treatments observed a specific monkey for 5 min and recorded each instance that a particular behavior occurred during 15-s intervals. Scores for each behavior were calculated as the number of 15-s bins in which the behavior occurred (e.g., a maximum score would be 20). For sedation measures, structured exposure to stimuli were included in the observation sessions (Duke et al., 2018). […] Specifically, the observer presented three stimuli: 1) walked at a normal pace towards the cage, 2) spoke the animal's name, and 3) moved the lock used to secure the door of the cage. […] If the monkey attended more slowly (i.e., >3 s following stimuli), the observer scored “moderate sedation”.
The assessment of sedation was initiated during the 5-min sampling period if the animal presented, at any time during that period, with its eyes closed for longer than 3 s. The result of this assessment was recorded for each remaining 15-sec interval of the 60-sec epoch unless eyes opened. Afterwards, eyes closing again initiated the assessment. If eyes remained closed, then the assessment was repeated at the beginning of the next 60-sec epoch 15-sec interval. Therefore, the maximum score for sedation during a 5-min period was 20 (four possible scores for 4×15-sec intervals per min, 5 min total; i.e., 4 possible scores×5 min=20). The order in which animals were observed and the observer performing the scoring each day was randomized. Four observers participated in the scoring throughout the duration of the study; each observer underwent a minimum of 20 hours of training and met an inter-observer reliability criterion of ≥90% agreement with all other observers.
The five-min sampling periods were repeated at multiple times following i.v. injection of TPA023B or vehicle (minutes post injection): 5, 10, 20, 40, 80, 160, 320. Scores were cumulated across the time periods, resulting in a maximum possible cumulative score of 140. TPA023B was compared with alprazolam, and the results have been published by Duke et al. (2018).

[2] = target: α1 subunit-containing GABAA receptors (Homo sapiens, UniProt P14867+P18507); parameters: key to Subtype α1: act as partial positive modulators for particular subtype combinations; none: zero efficacy (i.e., antagonism) at other subtypes; details: cited from earlier work
Sequence of α1 subunit-containing GABAA receptors (P14867 28-456): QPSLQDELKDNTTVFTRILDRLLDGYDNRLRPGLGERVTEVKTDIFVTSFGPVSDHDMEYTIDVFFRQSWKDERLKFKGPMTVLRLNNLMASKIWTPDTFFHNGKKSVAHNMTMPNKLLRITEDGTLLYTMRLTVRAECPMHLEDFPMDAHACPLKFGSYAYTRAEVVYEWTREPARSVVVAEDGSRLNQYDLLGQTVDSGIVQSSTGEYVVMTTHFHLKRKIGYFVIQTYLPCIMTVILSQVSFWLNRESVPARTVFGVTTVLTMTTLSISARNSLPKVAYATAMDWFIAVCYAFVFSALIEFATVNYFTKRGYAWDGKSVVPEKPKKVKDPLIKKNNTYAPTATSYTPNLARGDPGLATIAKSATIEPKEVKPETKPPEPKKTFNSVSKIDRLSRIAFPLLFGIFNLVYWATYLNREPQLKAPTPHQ
Sequence of α1 subunit-containing GABAA receptors (P18507 40-475): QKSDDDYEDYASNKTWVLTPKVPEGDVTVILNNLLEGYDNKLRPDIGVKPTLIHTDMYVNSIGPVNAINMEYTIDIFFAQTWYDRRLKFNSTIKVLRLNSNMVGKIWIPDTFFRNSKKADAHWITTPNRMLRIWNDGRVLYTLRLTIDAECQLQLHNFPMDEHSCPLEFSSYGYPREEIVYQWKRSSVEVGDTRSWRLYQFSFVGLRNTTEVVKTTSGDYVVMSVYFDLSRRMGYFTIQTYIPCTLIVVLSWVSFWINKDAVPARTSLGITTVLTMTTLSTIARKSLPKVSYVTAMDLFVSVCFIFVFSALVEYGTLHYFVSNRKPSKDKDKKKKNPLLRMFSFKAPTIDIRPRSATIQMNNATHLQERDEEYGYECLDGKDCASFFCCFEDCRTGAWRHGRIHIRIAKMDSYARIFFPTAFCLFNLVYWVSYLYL
Sequence of α1 subunit-containing GABAA receptors (P28472 26-473 partner): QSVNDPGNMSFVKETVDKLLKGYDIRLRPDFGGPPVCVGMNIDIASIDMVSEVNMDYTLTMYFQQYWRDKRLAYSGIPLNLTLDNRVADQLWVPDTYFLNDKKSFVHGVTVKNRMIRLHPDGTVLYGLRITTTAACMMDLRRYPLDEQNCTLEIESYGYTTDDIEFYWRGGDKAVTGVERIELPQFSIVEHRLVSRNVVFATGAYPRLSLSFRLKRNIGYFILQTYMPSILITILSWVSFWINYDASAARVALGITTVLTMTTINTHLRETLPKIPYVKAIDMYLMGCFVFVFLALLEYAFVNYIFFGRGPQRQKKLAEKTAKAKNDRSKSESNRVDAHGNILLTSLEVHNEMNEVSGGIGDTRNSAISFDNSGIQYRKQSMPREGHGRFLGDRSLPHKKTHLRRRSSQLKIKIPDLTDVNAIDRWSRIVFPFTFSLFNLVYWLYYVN

rhesus monkeys [3] = test: Midazolam self-administration (PR) after TPA023B pretreatment; format: in vivo, rhesus monkey
Method: To test this, we have trained monkeys to self-administer the short-acting conventional benzodiazepine midazolam (0.056 mg/kg/injection, i.v.) in the PR procedure, as described above. During test sessions, we initially kept the training dose of midazolam constant, and administered i.v. pretreatments of TPA023B (0.003, 0.01, 0.03, 0.1, 0.3 mg/kg, of vehicle) immediately prior to the beginning of the session. A key consideration for any pharmacotherapy, as well as interpretation of blockade of reinforcing effects generally, is the extent to which the blockade is specific to the drug target and not a generalized suppression of behavior, e.g., due to sedative-motor effects inhibiting the ability of the monkey to press the lever. Another possible confounding factor that would potentially result in blockade of drug taking is general sickness or perceptual alterations. In particular, appetite suppression would represent an undesirable side effect in a benzodiazepine addiction pharmacotherapy.
To further evaluate the extent to which attenuation of responding was due to pharmacological antagonism and to evaluate an exemplary range of effective doses, we evaluated single doses of TPA023B administered prior to sessions in which differing doses of midazolam were tested.

men = details: cited from earlier work
[4] = target: α3 subunit-containing GABAA receptors (Homo sapiens, UniProt P18507+P34903); parameters: key: act as partial positive modulators for particular subtype combinations; none: zero efficacy (i.e., antagonism) at other subtypes; details: cited from earlier work
Sequence of α3 subunit-containing GABAA receptors (P34903 29-492): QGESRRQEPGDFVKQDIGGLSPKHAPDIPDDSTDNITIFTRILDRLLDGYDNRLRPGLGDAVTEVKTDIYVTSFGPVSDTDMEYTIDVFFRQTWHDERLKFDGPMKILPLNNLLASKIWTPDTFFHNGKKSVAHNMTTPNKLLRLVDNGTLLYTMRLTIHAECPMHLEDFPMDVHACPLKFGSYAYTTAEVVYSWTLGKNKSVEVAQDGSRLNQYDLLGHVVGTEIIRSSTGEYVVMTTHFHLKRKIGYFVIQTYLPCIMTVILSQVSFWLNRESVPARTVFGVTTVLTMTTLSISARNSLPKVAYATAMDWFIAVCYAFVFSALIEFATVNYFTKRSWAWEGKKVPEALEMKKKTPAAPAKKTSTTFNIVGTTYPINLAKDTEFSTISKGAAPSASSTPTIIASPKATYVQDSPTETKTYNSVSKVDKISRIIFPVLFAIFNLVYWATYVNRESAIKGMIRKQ
Sequence of α3 subunit-containing GABAA receptors (P18507 40-475): as the sequence (P18507 40-475) above
Sequence of α3 subunit-containing GABAA receptors (P28472 26-473 partner): as the sequence (P28472 26-473 partner) above

rhesus monkeys [5] = test: Food self-administration (PR) after TPA023B pretreatment; format: in vivo, rhesus monkey; details: up to 0.3 mg/kg TPA023B i.v. pretreatment; 2 pellets/delivery
From the text: To evaluate the extent to which suppression of lever-pressing behavior by TPA023B represents non-specific inhibition, we also tested food self-administration under the PR schedule. For these experiments, test sessions were scheduled similar to those with midazolam dose/vehicle, except that 2 food pellets (1-g BioServ flavored food pellets) were available as reinforcers rather than midazolam dose. All other aspects of the test was the same, including response requirements and TPA023B pretreatment conditions.

[6] = system: CNS benzodiazepine binding sites; details: rodents and primates; cited from earlier work
[7] = target: α2 subunit-containing GABAA receptors (Homo sapiens, UniProt P18507+P47869); parameters: key: act as partial positive modulators for particular subtype combinations; none: zero efficacy (i.e., antagonism) at other subtypes; details: cited from earlier work
Sequence of α2 subunit-containing GABAA receptors (P47869 29-451): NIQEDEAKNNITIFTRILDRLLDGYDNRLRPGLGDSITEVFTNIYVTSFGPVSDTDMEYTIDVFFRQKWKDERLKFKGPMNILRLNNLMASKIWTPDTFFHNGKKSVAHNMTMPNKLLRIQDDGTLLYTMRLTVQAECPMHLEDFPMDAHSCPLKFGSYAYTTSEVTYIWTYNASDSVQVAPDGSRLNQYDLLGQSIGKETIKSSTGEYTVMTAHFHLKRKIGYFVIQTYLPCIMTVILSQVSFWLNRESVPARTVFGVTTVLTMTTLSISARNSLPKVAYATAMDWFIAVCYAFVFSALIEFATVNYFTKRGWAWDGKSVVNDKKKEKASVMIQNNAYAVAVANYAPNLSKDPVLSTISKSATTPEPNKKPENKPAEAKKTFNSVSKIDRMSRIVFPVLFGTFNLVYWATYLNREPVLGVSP
Sequence of α2 subunit-containing GABAA receptors (P18507 40-475): as the sequence (P18507 40-475) above
Sequence of α2 subunit-containing GABAA receptors (P28472 26-473 partner): as the sequence (P28472 26-473 partner) above

rodent, squirrel monkey = details: rodent rotarod and chain-pulling, squirrel monkey lever pressing; cited from earlier work
[8] = parameters: key to Pharmacokinetics: “poor” - low bioavailability and/or short half-life; “good” - potent with long half-life; details: in vivo; cited from earlier work
Sprague-Dawley rats = test: Precipitated withdrawal/acute dependence: responding 60 min after diazepam bolus; format: in vivo, rat; details: all doses tested, vs ligand alone; FIGS. 11A and 11B
Method: Acute dependence can occur after single exposures to the benzodiazepine chlordiazepoxide, but not to an α2/3GABAA selective ligand (Fischer et al. 2013, Psychopharmacology 227: 347-54). Here, the extent to which TPA023B can precipitate withdrawal in rats following a single, large bolus dose of diazepam was studied. […] Once rates of responding were stable, doses of diazepam, the non-selective benzodiazepine antagonist flumazenil, and TPA023B were administered prior to the session.

[9] = at least one dose significantly different from vehicle, out of 22 behaviors, N = 4 monkeys

## CC(C)(O)c1cnn2c(-c3ccc(F)c(-c4c(F)cccc4C#N)c3)cnc2n1 [TPA023B]
Rhesus monkeys [1]; 1.0 mg/kg
  highest tolerated dose relative to lowest dose inducing rest/sleep posture: 30 fold
Rhesus monkeys [1]; [9]
  Significant behavioral effects: Decrease: Tactile/Oral Exploration
  Significant behavioral effects: Increase: Rest/Sleep Posture
Rhesus monkeys [1]; up to doses of 1.0 mg/kg
  tolerability: well-tolerated
[2]
  Subtype α1: none
Rhesus monkeys [3]; TPA023B 0.01 mg/kg pretreatment
  effect on midazolam dose-response function: shifted the midazolam dose-response function to the right
Rhesus monkeys [3]; TPA023B 0.03 mg/kg i.v. pretreatment, midazolam 0.018 and 0.056 mg/kg/injection
  reduction of midazolam-maintained responding: > 50%
Rhesus monkeys [3]; all midazolam doses, FIG. 8
  midazolam self-administration, percent maximum: below 50%
Rhesus monkeys [3]; conflict and self-administration data combined, FIG. 8
  doses with both anti-conflict effects and blockade of midazolam self-administration: ≥ 0.03 mg/kg
Rhesus monkeys [3]; higher doses of TPA023B (above 0.01 mg/kg), even at higher midazolam doses
  midazolam self-administration, % of maximum: < 50%
Rhesus monkeys [3]; highest TPA023B dose, FIG. 8
  midazolam self-administration, percent maximum: below 25%
Rhesus monkeys [3]; pretreatment with 0.003 mg/kg TPA023B
  effect on self-administration of midazolam: did not attenuate
men; any dose, up to 3.0 mg/70 kg
  ataxia: No ataxia
men; oral, 1.5 mg/70 kg, men
  adverse effects: no adverse effects
men; oral, 3.0 mg/70 kg, men
  adverse effects: fatigue and drowsiness in some subjects
  subjects with fatigue and drowsiness: 1-4 subjects out of 8 total
[4]
  Subtype α3: partial
Rhesus monkeys [5]
  effect on food-maintained responding: did not alter
[6]
  occupancy of CNS benzodiazepine binding sites at minimally-effective doses in anxiolysis assays: 61-88%
[7]
  Subtype α2: partial
rodent, squirrel monkey
  sedation: minimally sedating
[8]
  Pharmacokinetics: good
Sprague-Dawley rats
  rates of responding 60 min after 3.0 mg/kg diazepam (precipitated withdrawal): did not alter rates of responding
